{
  "source": "patent US20240299416A1",
  "about": "“TREATMENT OF NF-kB-MEDIATED DISEASE” (ReveraGen BioPharma, Inc., priority 2021, published 2024)",
  "assay_type_in_all_cases": "in vivo, human",
  "key": {"[1]": {"test": "VBP15-004 height and BMI z-scores, 24 to 48 weeks", "settings": "for change in height Z scores: baseline to Week 24", "procedure": "The second period of 24 weeks, where all participants receive vamorolone treatment on either of the two dose levels, will continue to capture additional longer-term safety and tolerability data.\nSubjects already on vamorolone continued on the allocated dose level. Efficacy at Week 48 was assessed by Time to Stand (TTSTAND) velocity, 6-Minute Walk Test (6MWT), Time to Run/Walk 10 meters (TTRW) velocity, and North Star Ambulatory Assessment (NSAA). […] In contrast, the persistence of effects with vamorolone 2 mg/kg/day was less pronounced for some parameters. The safety profile was consistent for subjects who continued on the same dose of vamorolone throughout the study, with no increase in frequency or severity of adverse events being observed over time. […] In addition, vamorolone treatment at both doses reversed the growth impairment seen during prednisone treatment and was associated with fewer adverse events, including those associated with corticosteroid use."}, "[2]": {"test": "Growth (height percentile) and BMI vs external comparators", "procedure": "As with the CINRG DNHS comparators, group-matching criteria were prespecified in the iSAP, and 2 independent statisticians carried out the participant matching. […] There was no corresponding 12-month assessment in vamorolone-treated participants. (Assessments of vamorolone-treated trial participants were 0, 3, 6, and 18 months).\nStanding height and weight were assessed at each study visit. Height z-score, body mass index (BMI; kg/m^2), and BMI z-score were calculated centrally. AE reporting was done per protocol in the vamorolone trials.\nThe current study is the first to evaluate the longer-term tolerability, efficacy, and safety of vamorolone in DMD. […] Given the variable timing of dose escalations, it was prespecified that initial analyses of drug-related efficacy and safety would be limited to those participants who had 18 months of treatment with 2.0 mg/kg/day vamorolone or more (dose group C+dose group D; n=23). Outcomes for these participants were compared to a group-matched cohort from the CINRG DNHS over 18 months (corticosteroid-naïve, n=19; corticosteroid-treated, n=68). Participants were matched for age and treatment period (±1 month), matching criteria were prespecified in the statistical analysis plan. Two independent statisticians carried out the matching.\nParticipants in the corticosteroid-treated CINRG DNHS group were treated for at least 18 months, but the total duration, dose, and regimens varied."}, "[3]": {"test_system": "boys with DMD", "test": "VBP15-LTE month 24 PODCI and wrist x-ray bone age", "text": "In addition, 39/41 LTE participants had wrist x-ray at Month 24; the mean bone age to chronologic age difference was −1.1 (p<0.001, CI −1.5, −0.7), indicating possible skeletal maturation delay (Table 7).\nPODCI is the Pediatrics Outcomes Data Collection Instrument (musculoskeletal disorders). The PODCI is a disease-specific questionnaire developed by the American Academy of Orthopedic Surgeons to measure general health and problems related to bone and muscle conditions in children. A significant increase in mean PODCI upper extremity and physical function standardized score was observed from LTE baseline to Month 24 (7.95±12.54, CI 1.003, 14.897, p=0.0278, n=15) for the combined 2.0 and 6.0 mg/kg/day initial dose group. At the same time, a non-significant decrease in mean PODCI transfer and basic mobility standardized score was observed (−4.38±22.68, CI −16.471, 7.703, p=0.451, n=16) (Table 7)."}, "[4]": {"test": "VBP15-003 24-week dose-finding extension, safety", "procedure": "Vamorolone clinical studies have been conducted in adult male volunteers and boys with DMD, a disorder in which skeletal muscle is in a chronic inflammatory state. Two consecutive open-label dose-ranging studies in 48 DMD patients aged 4 to <7 years (corticosteroid-naïve) were conducted (Phase IIa, VBP15-002; Phase IIa, VBP15-003). Doses were tested over a 24-fold dose range (0.25, 0.75, 2.0, and 6.0 mg/kg/day), with 12 participants per group. The first multiple ascending dose (MAD) cohort trial-tested pharmacokinetics (PK) and safety for 2 weeks of drug dosing followed by a 2-week washout (VBP15-002). […] All DMD participants completed the MAD study and then continued on the same dose for a 24-week dose-finding (efficacy and safety) extension study (VBP15-003).\nVBP15-002 (Phase IIa; two weeks on the drug, two weeks off drug) enrolled 48 corticosteroid-naïve participants with DMD, and all 48 participants completed the study and enrolled into VBP15-003 (Phase IIa extension; 24-week treatment). Forty-six of 48 participants completed the VBP15-003 study (2 participants withdrew from VBP15-003 for reasons unrelated to the study drug). In addition, all participants (46/46) opted to enroll in the 24-month long-term extension study, VBP15-LTE.\nOnly participants completing VBP15-002 and VBP15-003 were eligible to enroll in VBP15-LTE. Participants received vamorolone at 1 of 4 dose levels (0.25, 0.75, 2.0, or 6.0 mg/kg/day) and at the same dose level in both the 4-week VBP15-002 trial and the 24-week VBP15-003 trial. If participants, their families, and their physicians wished to continue vamorolone treatment upon exiting the VBP15-003 trial, they were offered participation in the 24-month long-term extension (VBP15-LTE). The last visit of the VBP15-003 trial was commensurate with the first visit of the VBP15-LTE trial. In all studies, study medication was provided as 4% flavored liquid suspension and was dosed according to body weight and given once daily in the morning with food.\nStudy visits took place quarterly, including assessment of clinical laboratory results, vital signs, and AEs. All AEs were coded using the Medical Dictionary for Regulatory Activities (MedDRA version 19.0) system for reporting (preferred term and system organ class). Clinical efficacy assessments were performed at baseline of the VBP15-002 study, at six months (end of VBP15-003 study), and the 12-month midpoint visit of the VBP15-LTE study."}, "[5]": {"settings": "vamorolone 18 months vs prednisone trial 12 months"}, "[6]": {"settings": "vamorolone vs corticosteroid-naïve DNHS, 18 months"}, "[7]": {"settings": "vamorolone vs corticosteroid-treated DNHS, 18 months"}},
  "note": "Read-outs that look alike come from different tables or passages of the source.",
  "data": [
    {"smiles": "C[C@@H]1C[C@H]2[C@@H]3CCC4=CC(=O)C=C[C@]4(C)C3=CC[C@]2(C)[C@@]1(O)C(=O)CO", "note": "[Vamorolone, 17α,21-dihydroxy-16α-methylpregna-1,4,9(11)-triene-3,20-dione]", "values": [
      {"measurement": "height (z-score), absolute value, Mean", "setting": "[1]; PDN/VAM 6 mg, Week 48", "result": "−0.12"},
      {"measurement": "BMI mean z-score", "setting": "[1]; Treatment Period 2 after switch from prednisone to vamorolone 6 mg/kg/day", "result": 1.32},
      {"measurement": "growth velocity", "setting": "[1]; both vamorolone doses, 48 weeks", "result": "preserved"},
      {"measurement": "BMI mean z-score", "setting": "[1]; continuing on 2 mg/kg/day, Week 24", "result": 1.10},
      {"measurement": "BMI mean z-score", "setting": "[1]; continuing on 2 mg/kg/day, Week 48", "result": 0.91},
      {"measurement": "BMI mean z-score", "setting": "[1]; continuing on 6 mg/kg/day, Week 24", "result": 1.40},
      {"measurement": "BMI mean z-score", "setting": "[1]; continuing on 6 mg/kg/day, Week 48", "result": 1.32},
      {"measurement": "change in height Z scores", "setting": "[1]; vamorolone 2.0 mg/kg/day", "result": "overall stable height change Z scores"},
      {"measurement": "change in height Z scores", "setting": "[1]; vamorolone 6.0 mg/kg/day", "result": "increased growth rate"},
      {"measurement": "Mean BMI z-score, 18-month value (SD)", "setting": "[2]; 18 months of treatment", "result": "1.46 (0.62)"},
      {"measurement": "Mean BMI z-score, change from baseline (SD)", "setting": "[2]; 18 months of treatment", "result": "0.411 (0.615)"},
      {"measurement": "Mean height percentile for age, 18-month value (SD)", "setting": "[2]; 18 months of treatment", "result": "35.24 (29.82)"},
      {"measurement": "Mean BMI z-score, change from baseline (SD)", "setting": "[2]; 18 months of treatment, listed as vamorolone", "result": 0.41},
      {"measurement": "LS Mean change in height percentiles for age", "setting": "[2]; DMD children, 18 months treatment", "result": "+6.9"},
      {"measurement": "Mean BMI z-score, baseline value (SD)", "setting": "[2]; baseline of 18-month period", "result": "1.03 (0.56)"},
      {"measurement": "Mean height percentile for age, baseline value (SD)", "setting": "[2]; baseline of 18-month period", "result": "29.19 (24.66)"},
      {"measurement": "Mean BMI z-score, baseline value (SD)", "setting": "[2]; baseline of 18-month period, listed as vamorolone", "result": 1.03},
      {"measurement": "BMI change from baseline to 18 months", "setting": "[2]; original dose group B (0.75 mg/kg/day, escalated)", "result": 0.5, "unit": "kg/m^2"},
      {"measurement": "BMI change from baseline to 18 months", "setting": "[2]; original dose group C (2.0 mg/kg/day)", "result": 1.11, "unit": "kg/m^2"},
      {"measurement": "BMI change from baseline to 18 months", "setting": "[2]; original dose group D (6.0 mg/kg/day)", "result": 2.55, "unit": "kg/m^2"},
      {"measurement": "Mean BMI z-score, LS mean difference (SE)", "setting": "[2]; [5]", "result": "0.066 (0.193)"},
      {"measurement": "Mean height percentile for age, LS mean difference (SE)", "setting": "[2]; [5]", "result": "10.37 (3.86)"},
      {"measurement": "Mean height percentile for age, LS mean difference (SE)", "setting": "[2]; vamorolone 18 months vs prednisone trial 12 months, listed as vamorolone", "result": 10.37},
      {"measurement": "Mean BMI z-score, LS mean difference (SE)", "setting": "[2]; [6]", "result": "0.899 (0.204)"},
      {"measurement": "Mean height percentile for age, LS mean difference (SE)", "setting": "[2]; [6]", "result": "6.72 (3.48)"},
      {"measurement": "Mean BMI z-score, LS mean difference (SE)", "setting": "[2]; [7]", "result": "0.282 (0.146)"},
      {"measurement": "Mean height percentile for age, LS mean difference (SE)", "setting": "[2]; [7]", "result": "15.86 (3.70)"},
      {"measurement": "Mean height percentile for age, LS mean difference (SE)", "setting": "[2]; vamorolone vs corticosteroid-treated DNHS, 18 months, listed as vamorolone", "result": 15.86},
      {"measurement": "Bone Age by wrist x-ray, mean (SD)", "setting": "[3]", "result": "6.8 (1.4), n = 39 yr"},
      {"measurement": "Bone Age difference to Chronologic Age, mean (SD)", "setting": "[3]", "result": "−1.1 (1.2), yr"},
      {"measurement": "Bone Age difference to Chronologic Age, mean (SD)", "setting": "[3]; listed as vamorolone", "result": "−1.1", "unit": "yr"},
      {"measurement": "TEAE abnormal behavior, participants", "setting": "[4]; 2.0-mg/kg/day group", "result": "one participant"},
      {"measurement": "TEAE Cushingoid habitus, participants", "setting": "[4]; 6.0-mg/kg/day group", "result": "one participant each"},
      {"measurement": "TEAE abnormal blood cortisol level, participants", "setting": "[4]; 6.0-mg/kg/day group", "result": "one participant each"},
      {"measurement": "TEAE anxiety, participants", "setting": "[4]; 6.0-mg/kg/day group", "result": "one participant each"},
      {"measurement": "TEAE hypertrichosis, participants", "setting": "[4]; 6.0-mg/kg/day group", "result": "two participants"},
      {"measurement": "TEAE personality change, participants", "setting": "[4]; 6.0-mg/kg/day group", "result": "one participant each"},
      {"measurement": "safety and tolerability", "setting": "[4]; oral, all doses tested, 24 weeks", "result": "safe and well-tolerated"}
    ]}
  ]
}
